# Test results published in patent publication US20260053811A1, “METHODS OF TREATING HYPERTENSION IN OBESE SUBJECTS” (Mineralys Therapeutics, Inc., priority 2022, published 2026).
# System: hypertensive subjects
# Experiment: Seated automated office blood pressure (AOBP) in randomized, placebo-controlled, dose-ranging study
# Assay type: in vivo, human
# Conditions: Part 1
# Protocol: A randomized, double-blinded, placebo-controlled, dose-ranging, multicenter study was conducted to evaluate the effect of orally administered Compound A HBr on blood pressure for the treatment of hypertension in male and female subjects ≥18 years of age.
# The study consists of two parts. For enrollment into Part 1 of the study, a subject's value of plasma renin activity (PRA) must be ≤1 ng/mL/h based on morning measurement. If the value of PRA >1 ng/mL/h based on morning measurement, then subjects may be eligible to enter Part 2 of the study.
# For Part 1, 163 enrolled subjects ≥18 years of age were randomized into 6 equal treatment groups (1:1:1:1:1:1) to 12.5 mg BID, 25 mg BID, 12.5 mg QD, 50 mg QD, 100 mg QD, or placebo. After a review of interim clinical data, the 2 lowest dose levels (12.5 mg QD and 12.5 mg BID) were stopped for future randomization due to a lack of consistent meaningful reduction of blood pressure, but the patients randomized to that point remained in the study through completion. Thus, after the review of interim clinical data, subjects were randomized into 4 equal treatment groups (1:1:1:1) to 25 mg BID, 50 mg QD, 100 mg QD, or placebo.
# For Part 2, 36 enrolled subjects ≥18 years of age were randomized (5:1) to either 100 mg QD Compound A HBr or placebo such that the Compound A HBr treatment group consisted of approximately 30 subjects and the placebo treatment group will consist of approximately 6 subjects.
# Subjects orally administered the assigned study drug (Compound A HBr or placebo) according to the assigned dosing regimen for 8 weeks beginning on Study Day 1. All subjects in Part 1 (regardless of dosing group) received BID dosing to preserve the integrity of the blind; active drug is administered as the morning dose for all QD dose groups. Subjects returned to the research facility or were seen by the clinical investigator or approved home health care professional at the end of Study Weeks 1, 2, 3, 4, 5, 6, 7, and 8 (±2 days) for protocol-defined efficacy and safety assessments and procedures, assessment of adverse events (AEs), and confirmation of compliance with study drug usage. Subjects also completed a telephone visit and blood pressure (BP) check at home approximately 3 days post last dose of study drug. Subjects attended up to 14 full clinic visits, including a pre-Screening visit, a Screening/start of Placebo Run-in visit, a second visit during Placebo Run-in, a clinic visit to initiate the ABPM procedure, a Randomization visit, 8 weekly visits during double-blind treatment, and an end-of-study visit scheduled 4 weeks after the last study treatment for final efficacy and safety assessments.
# An automated oscillometric sphygmomanometer device was used to measure the subjects' systolic and diastolic blood pressure in office after approximately 5 minutes of rest in the seated position.
# The primary endpoint is the change in office-measured (mean of last 2 of 5 unattended measurements using an automated oscillometric sphygmomanometer device after approximately 5 minutes of rest in the seated position) systolic blood pressure (SBP) from baseline to the end of Study Week 8.
# Secondary endpoints of this study were: • (a) Change in 24-hour ambulatory blood pressure monitoring (ABPM) parameters (systolic and diastolic) from baseline to the end of Study Week 7. • (b) Change in office-measured SBP from baseline to the end of Study Weeks 1, 2, 3, 4, 5, 6, and 7. • (c) Change in office-measured diastolic blood pressure (DBP) from baseline to the end of Study Weeks 1, 2, 3, 4, 5, 6, 7, and 8. • (d) Proportion of subjects who achieve office-measured BP of ≤130/80 mm Hg by the end of Study Week 8.
# [1] = 50 mg QD, Systolic Blood Pressure Tertile at Baseline High
# [2] = 50 mg QD, Systolic Blood Pressure Tertile at Baseline Low
# [3] = 50 mg QD, Systolic Blood Pressure Tertile at Baseline Middle
# [4] = 50 mg QD, Thiazide Diuretic Use at Baseline No
# [5] = 50 mg QD, Thiazide Diuretic Use at Baseline Yes
compound,measurement,setting,value
CC(=O)N[C@H]1CC[C@H](NC(=O)CN2CCN(c3nncc(-c4ccc(C)cc4)n3)CC2)CC1 [Compound A HBr],Mean (SD) Change from Baseline at Week 8 in Automated Office-Measured Diastolic Blood Pressure,"50 mg QD, Seated SBP Tertile Middle",−10.63 (7.25) mmHg
same,Mean (SD) Automated Office-Measured Diastolic Blood Pressure at Wk 8,"50 mg QD, Sex Female",75.67 (12.10) mmHg
same,Mean (SD) Automated Office-Measured Systolic Blood Pressure at Wk 8,"50 mg QD, Sex Female",125.67 (11.97) mmHg
same,Mean (SD) Change from Baseline at Week 8 in Automated Office-Measured Diastolic Blood Pressure,"50 mg QD, Sex Female",−9.20 (10.37) mmHg
same,Mean (SD) Change from Baseline at Week 8 in Automated Office-Measured Systolic Blood Pressure,"50 mg QD, Sex Female",−15.97 (18.44) mmHg
same,Mean (SD) Automated Office-Measured Diastolic Blood Pressure at Wk 8,"50 mg QD, Sex Male",78.15 (6.52) mmHg
same,Mean (SD) Change from Baseline at Week 8 in Automated Office-Measured Diastolic Blood Pressure,"50 mg QD, Sex Male",−6.73 (7.65) mmHg
same,Mean (SD) Change from Baseline at Week 8 in Automated Office-Measured Systolic Blood Pressure,"50 mg QD, Sex Male",−9.96 (15.67) mmHg
same,Mean (SD) Automated Office-Measured Systolic Blood Pressure at Wk 8,[1],127.25 (17.59) mmHg
same,Mean (SD) Change from Baseline at Week 8 in Automated Office-Measured Systolic Blood Pressure,[1],−29.25 (14.31) mmHg
same,Mean (SD) Automated Office-Measured Systolic Blood Pressure at Wk 8,[2],130.25 (12.04) mmHg
same,Mean (SD) Change from Baseline at Week 8 in Automated Office-Measured Systolic Blood Pressure,[2],−2.58 (12.54) mmHg
same,Mean (SD) Automated Office-Measured Systolic Blood Pressure at Wk 8,[3],127.63 (13.35) mmHg
same,Mean (SD) Change from Baseline at Week 8 in Automated Office-Measured Systolic Blood Pressure,[3],−13.00 (14.05) mmHg
same,"Automated Office-Measured Diastolic Blood Pressure, Week 8, Mean (SD)",[4],78.00 (6.42) mmHg
same,Mean (SD) Automated Office-Measured Systolic Blood Pressure at Wk 8,[4],130.00 (13.65) mmHg
same,Mean (SD) Change from Baseline at Week 8 in Automated Office-Measured Diastolic Blood Pressure,[4],−4.71 (7.77) mmHg
same,Mean (SD) Change from Baseline at Week 8 in Automated Office-Measured Systolic Blood Pressure,[4],−7.67 (15.11) mmHg
same,"Automated Office-Measured Diastolic Blood Pressure, Week 8, Mean (SD)",[5],75.94 (11.89) mmHg
same,Mean (SD) Automated Office-Measured Systolic Blood Pressure at Wk 8,[5],127.63 (14.08) mmHg
same,Mean (SD) Change from Baseline at Week 8 in Automated Office-Measured Diastolic Blood Pressure,[5],−10.56 (9.49) mmHg
same,Mean (SD) Change from Baseline at Week 8 in Automated Office-Measured Systolic Blood Pressure,[5],−17.31 (17.91) mmHg
same,Mean (SD) Automated Office-Measured Systolic Blood Pressure at Wk 8,"100 mg QD, ACEi/ARB No",116.80 (7.19) mmHg
same,Mean (SD) Change from Baseline at Week 8 in Automated Office-Measured Systolic Blood Pressure,"100 mg QD, ACEi/ARB No",−23.70 (8.89) mmHg
same,Mean (SD) Automated Office-Measured Systolic Blood Pressure at Wk 8,"100 mg QD, ACEi/ARB Yes",134.90 (13.12) mmHg
same,Mean (SD) Change from Baseline at Week 8 in Automated Office-Measured Systolic Blood Pressure,"100 mg QD, ACEi/ARB Yes",−11.68 (13.23) mmHg
same,Mean (SD) Automated Office-Measured Diastolic Blood Pressure at Wk 8,"100 mg QD, ACEi/ARBs No",71.40 (10.62) mmHg
same,Mean (SD) Change from Baseline at Week 8 in Automated Office-Measured Diastolic Blood Pressure,"100 mg QD, ACEi/ARBs No",−9.00 (6.21) mmHg
same,Mean (SD) Automated Office-Measured Diastolic Blood Pressure at Wk 8,"100 mg QD, ACEi/ARBs Yes",73.40 (9.37) mmHg
same,Mean (SD) Change from Baseline at Week 8 in Automated Office-Measured Diastolic Blood Pressure,"100 mg QD, ACEi/ARBs Yes",−4.58 (8.10) mmHg
same,Mean (SD) Automated Office-Measured Diastolic Blood Pressure at Wk 8,"100 mg QD, AHTs 2",74.09 (4.66) mmHg
same,Mean (SD) Automated Office-Measured Systolic Blood Pressure at Wk 8,"100 mg QD, AHTs 2",124.82 (13.25) mmHg
same,Mean (SD) Change from Baseline at Week 8 in Automated Office-Measured Diastolic Blood Pressure,"100 mg QD, AHTs 2",−8.09 (8.81) mmHg
same,Mean (SD) Change from Baseline at Week 8 in Automated Office-Measured Systolic Blood Pressure,"100 mg QD, AHTs 2",−17.95 (15.83) mmHg
same,Mean (SD) Automated Office-Measured Diastolic Blood Pressure at Wk 8,"100 mg QD, AHTs ≥3",72.14 (12.08) mmHg
same,Mean (SD) Automated Office-Measured Systolic Blood Pressure at Wk 8,"100 mg QD, AHTs ≥3",136.36 (13.05) mmHg
same,Mean (SD) Change from Baseline at Week 8 in Automated Office-Measured Diastolic Blood Pressure,"100 mg QD, AHTs ≥3",−3.39 (6.60) mmHg
same,Mean (SD) Change from Baseline at Week 8 in Automated Office-Measured Systolic Blood Pressure,"100 mg QD, AHTs ≥3",−11.04 (10.45) mmHg
same,Mean (SD) Automated Office-Measured Diastolic Blood Pressure at Wk 8,"100 mg QD, Age 65-79 yr",72.80 (7.89) mmHg
same,Mean (SD) Automated Office-Measured Systolic Blood Pressure at Wk 8,"100 mg QD, Age 65-79 yr",133.73 (12.53) mmHg
same,Mean (SD) Change from Baseline at Week 8 in Automated Office-Measured Diastolic Blood Pressure,"100 mg QD, Age 65-79 yr",−4.37 (7.01) mmHg
same,Mean (SD) Change from Baseline at Week 8 in Automated Office-Measured Systolic Blood Pressure,"100 mg QD, Age 65-79 yr",−9.53 (11.49) mmHg
same,Mean (SD) Automated Office-Measured Diastolic Blood Pressure at Wk 8,"100 mg QD, Age <65 yr",78.33 (9.69) mmHg
same,Mean (SD) Automated Office-Measured Systolic Blood Pressure at Wk 8,"100 mg QD, Age <65 yr",129.33 (20.63) mmHg
same,Mean (SD) Change from Baseline at Week 8 in Automated Office-Measured Diastolic Blood Pressure,"100 mg QD, Age <65 yr",−8.67 (10.16) mmHg
same,Mean (SD) Change from Baseline at Week 8 in Automated Office-Measured Systolic Blood Pressure,"100 mg QD, Age <65 yr",−22.75 (14.75) mmHg
